As a reminder, the LD50 is the dose expected to kill half of the subjects tested.

These results are taken from patent publication US4440770A, “Diuretic, hypotensive and antiedemic quinoline oximes” (Mochida Seiyaku Kabushiki Kaisha, priority 1980, dated 1984).

SMILES strings stand for the structures.

Data set [1] can be described thus: Properties of respective derivatives (solubility). Format: physicochemical.
The next data set deals with rats. Put plainly: Diuretic effect in rats. Format: in vivo, Wister strain male rats. The following applies: Rattus norvegicus, po, 5 h, urine volume up to 5 hours, % of control; for response vs control in vivo at 5 mg/kg: dosage 5 mg/kg; for response vs control in vivo at 10 mg/kg: dosage 10 mg/kg; for response vs control in vivo at 20 mg/kg: dosage 20 mg/kg; for response vs control in vivo at 2.5 mg/kg: dosage 2.5 mg/kg; for response vs control in vivo at 50 mg/kg: dosage 50 mg/kg. How it is done: Wister strain male rats weighing about 200 g were starved overnight and each compound of this invention suspended in 25 ml/kg of physiological saline were administered orally to the 5 animals in each group, and the diuretic effect up to 5 hours after the administration was measured. The diuretic effect is expressed as the average urine volume (%) of the treated group divided by that of the control group.

Data set [2] has as its system Carrageenin-Induced Foot Edema. The data set can be described thus: Inhibition for carrageenin-induced foot edema in rats. Format: in vivo, Wister strain male rats. The following applies: 1 hour before carrageenin, paw volume 3 hours after, probit method; for ED30: Rattus norvegicus, po, read-out: ED30 (dosage for 30% inhibition of edema). How it is done:
10 Wister strain male rats weighing about 120 g were used in each group. Each compound of this invention was suspended in a 5% aqueous arabic gum solution and administered orally to the animals. One hour after the administration, 0.1 ml of a 1% solution of carrageenin in physiological saline as a phlogistic agent was subcutaneously injected into the right hind paw of the rats which had been shaven previously. The volume of the right hind paw was measured before the administration of the phlogistic agent and 3 hours after the administration. The intensity of edema expressed as percent increase in the foot volume was calculated from the […] (1) and the percent inhibition of edema was calculated from the equation (2). [formula]
The effective dosage of each compound for inhibiting edema was expressed as ED30 (mg/kg) by calculating the dosage for 30% inhibition from the percent inhibition of edema according to the probit method.
For orientation: The carrageenan paw model is a standard test of acute inflammation.

Data set [3] in a line: Acute oral toxicity in mice. The following applies: mouse, in vivo, mortality 7 days after administration. The procedure:
10 ddY Strain male mice weighing about 20 g were used in each group. Each compound of this invention was suspended in a 5% aqueous gum arabic solution and administered orally. The mortality rate (%) was determined from the number of dead animals 7 days after the administration, and the dosage corresponding to 50% mortality was calculated and expressed as LD50 (mg/kg).

On to `CC(=O)N1CCC(=NO)c2cc(Cl)ccc21` [Compound I, 6-Chloro-4-oximino-1-acetyl-1,2,3,4-tetrahydroquinoline], for which, in data set [1], the “Solubility in methanol, acetone and chloroform” value (“Solubility in methanol” below) is “easily soluble”; the “Solubility in water and hexane” value is given as “Sparingly soluble”. Further, in the data set on rats, the response vs control in vivo at 5 mg/kg was found to be 131%, the response vs control in vivo at 10 mg/kg is 186% and the response vs control in vivo at 20 mg/kg is 260%. Besides, in data set [2], the ED30 was determined as 39 mg/kg. In data set [3], this molecule gave a 50% lethal dose (LD50) at 168 h above 5000 mg/kg.
In the case of `CCC(=O)N1CCC(=NO)c2cc(Cl)ccc21` [Compound II, 6-Chloro-4-oximino-1-propionyl-1,2,3,4-tetrahydroquinoline], in data set [1], the “Solubility in methanol” value was “easily soluble”; the “Solubility in water and hexane” value is given as “Sparingly soluble”. In the data set on rats, the response vs control in vivo at 2.5 mg/kg is 253%, the response vs control in vivo at 5 mg/kg is 304% and the response vs control in vivo at 10 mg/kg came out at 410%. In addition, the ED30 in data set [2] is 8.8 mg/kg. In data set [3], this molecule registered an LD50 at 168 h of 3490 mg/kg.
Turning to `CCCC(=O)N1CCC(=NO)c2cc(Cl)ccc21` [Compound III, 6-Chloro-4-oximino-1-butyryl-1,2,3,4-tetrahydroquinoline], in data set [1], the “Solubility in methanol” value is recorded as “easily soluble”; the “Solubility in water and hexane” value is on record as “Sparingly soluble”. In the data set with rats, this molecule came in with a response vs control in vivo at 5 mg/kg of 122%, a response vs control in vivo at 10 mg/kg of 172% and a response vs control in vivo at 20 mg/kg of 240%. Further, in data set [2], the ED30 came to 33 mg/kg. In data set [3], this molecule came in with an LD50 at 168 h above 5000 mg/kg.
Turning to `CC(C)C(=O)N1CCC(=NO)c2cc(Cl)ccc21` [Compound IV, 6-Chloro-4-oximino-1-isobutyryl-1,2,3,4-tetrahydroquinoline], in data set [1], the “Solubility in methanol” value is reported as “easily soluble”; the “Solubility in water and hexane” value was “Sparingly soluble”. In addition, the response vs control in vivo at 25 mg/kg in the data set with rats (dosage 25 mg/kg) was 119%. The response vs control in vivo at 50 mg/kg with rats is 211%. In addition, the ED30 in data set [2] worked out at 87 mg/kg. In addition, the median lethal dose (LD50) at 168 h in data set [3] is above 5000 mg/kg.
Consider `CCCCC(=O)N1CCC(=NO)c2cc(Cl)ccc21` [Compound V, 6-Chloro-4-oximino-1-valeryl-1,2,3,4-tetrahydroquinoline], for which, in data set [1], the “Solubility in methanol” value is on record as “easily soluble”; the “Solubility in water and hexane” value is reported as “Sparingly soluble”. For the same molecule, the response vs control in vivo at 50 mg/kg with rats was determined as 209%. Further, the ED30 in data set [2] turned out to be 140 mg/kg. Further, in data set [3], the median lethal dose (LD50) at 168 h is above 5000 mg/kg.
For `CC(C)CC(=O)N1CCC(=NO)c2cc(Cl)ccc21` [Compound VI, 6-Chloro-4-oximino-1-isovaleryl-1,2,3,4-tetrahydroquinoline], in that order: “easily soluble”, “Sparingly soluble”, 196%, 105 mg/kg and above 5000 mg/kg.
For `O=C(Cc1ccccc1)N1CCC(=NO)c2cc(Cl)ccc21` [Compound VII, 6-Chloro-4-oximino-1-phenylacetyl-1,2,3,4-tetrahydroquinoline], in that order: “easily soluble”, “Sparingly soluble”, 202%, 140 mg/kg and above 5000 mg/kg.
Regarding `O=C(C=Cc1ccccc1)N1CCC(=NO)c2cc(Cl)ccc21` [Compound VIII, 6-Chloro-4-oximino-1-cinnamoyl-1,2,3,4-tetrahydroquinoline], in data set [1], the “Solubility in methanol” value is listed as “easily soluble”; the “Solubility in water and hexane” value was “Sparingly soluble”. For the same molecule, the response vs control in vivo at 50 mg/kg in the data set with rats came out at 228%. Besides, in data set [2], the ED30 stood at 44 mg/kg. In data set [3], this molecule came in with a median lethal dose (LD50) at 168 h above 5000 mg/kg.
For the molecule `COC(=O)N1CCC(=NO)c2cc(Cl)ccc21` [Compound X, 6-Chloro-4-oximino-1-methoxycarbonyl-1,2,3,4-tetrahydroquinoline], in data set [1], the “Solubility in ethanol and dichloromethane” value was “soluble”; the “Solubility in water and hexane” value was “Sparingly soluble”. For the same molecule, in the data set with rats, the response vs control in vivo at 2.5 mg/kg was 188%, the response vs control in vivo at 5 mg/kg came to 306% and the response vs control in vivo at 10 mg/kg was 371%. Moreover, the ED30 in data set [2] was found to be 14 mg/kg. This molecule also showed an LD50 at 168 h in data set [3] of 4470 mg/kg.
Regarding `COC(=O)N1CCC(=NO)c2cc(Br)ccc21` [Compound XI, 6-Bromo-4-oximino-1-methoxycarbonyl-1,2,3,4-tetrahydroquinoline], in data set [1], the “Solubility in ethanol and dichloromethane” value is reported as “soluble”; the “Solubility in water and hexane” value is on record as “Sparingly soluble”. The response vs control in vivo at 10 mg/kg in the data set on rats came out at 293%. This molecule registered a response vs control in vivo at 0.5 mg/kg in the data set on rats (dosage .5 mg/kg (so in the source)) of 152%. Moreover, the ED30 in data set [2] is 83 mg/kg. In data set [3], this molecule came in with an LD50 at 168 h above 5000 mg/kg.
As to `CCOC(=O)N1CCC(=NO)c2cc(F)ccc21` [Compound XII, 6-Fluoro-4-oximino-1-ethoxycarbonyl-1,2,3,4-tetrahydroquinoline], in data set [1], the “Solubility in ethanol and dichloromethane” value is “soluble”; the “Solubility in water and hexane” value is listed as “Sparingly soluble”. In the data set with rats, this molecule returned a response vs control in vivo at 10 mg/kg of 180% and a response vs control in vivo at 20 mg/kg of 285%. Moreover, the ED30 in data set [2] worked out at 86 mg/kg. In data set [3], the LD50 at 168 h is above 5000 mg/kg.
For `CCOC(=O)N1CCC(=NO)c2cc(Cl)ccc21` [Compound XIII, 6-Chloro-4-oximino-1-ethoxycarbonyl-1,2,3,4-tetrahydroquinoline], in data set [1], the “Solubility in ethanol and dichloromethane” value is recorded as “soluble”; the “Solubility in water and hexane” value is “Sparingly soluble”. In the data set on rats, this molecule had a response vs control in vivo at 10 mg/kg of 204% and a response vs control in vivo at 20 mg/kg of 310%. Moreover, in data set [2], the ED30 is 49 mg/kg. The same molecule displayed an LD50 at 168 h in data set [3] above 5000 mg/kg.
Regarding `CCC(=O)N1CCC(=NO)c2cc(F)ccc21` [Compound XV, 6-Fluoro-4-oximino-1-propionyl-1,2,3,4-tetrahydroquinoline], in data set [1], the “Solubility in ethanol and dichloromethane” value is recorded as “soluble”; the “Solubility in water and hexane” value is “Sparingly soluble”. In the data set on rats, this molecule yielded a response vs control in vivo at 2.5 mg/kg of 209%, a response vs control in vivo at 5 mg/kg of 347% and a response vs control in vivo at 10 mg/kg of 425%. Also, the ED30 in data set [2] is 9.3 mg/kg. Also, the 50% lethal dose (LD50) at 168 h in data set [3] stood at 3440 mg/kg.
`NS(=O)(=O)c1cc(C(=O)O)c(NCc2ccco2)cc1Cl` [Furosemide, reference compound] gave a response vs control in vivo at 5 mg/kg in the data set with rats of 133%.
Regarding `COC(=O)N1CCC(=NO)c2cc(F)ccc21` [IX, 6-Fluoro-4-oximino-1-methoxycarbonyl-1,2,3,4-tetrahydroquinoline], in data set [1], the “Solubility in ethanol and dichloromethane” value is on record as “soluble”; the “Solubility in water and hexane” value is reported as “Sparingly soluble”. In the data set on rats, the response vs control in vivo at 2.5 mg/kg was determined as 251%, the response vs control in vivo at 5 mg/kg worked out at 309% and the response vs control in vivo at 10 mg/kg stood at 408%. Besides, the ED30 in data set [2] was found to be 22 mg/kg. In addition, in data set [3], the 50% lethal dose (LD50) at 168 h was above 5000 mg/kg.
As for `CCCCC1C(=O)N(c2ccccc2)N(c2ccccc2)C1=O` [Phenylbutazone, reference compound], the ED30 in data set [2] was found to be 65 mg/kg. In addition, the “ED30 (dosage for 30% inhibition of edema)” value in data set [2] (oral) was 63 mg/kg.
Regarding `CC(=O)N1CCC(=NO)c2cc(Br)ccc21` [XIV, 6-Bromo-4-oximino-1-acetyl-1,2,3,4-tetrahydroquinoline], in data set [1], the “Solubility in ethanol and dichloromethane” value is reported as “soluble”; the “Solubility in water and hexane” value is “Sparingly soluble”. The molecule also gave a response vs control in vivo at 20 mg/kg in the data set on rats of 234%. The ED30 in data set [2] worked out at 182 mg/kg. The median lethal dose (LD50) at 168 h in data set [3] was above 5000 mg/kg.
Consider `CNC(=O)N1CCC(=NO)c2cc(Cl)ccc21` [XIX, 6-Chloro-4-oximino-1-methylcarbamoyl-1,2,3,4-tetrahydroquinoline], for which, in data set [1], the “Solubility in ethanol and dichloromethane” value was “soluble”; the “Solubility in water and hexane” value is “Sparingly soluble”. In the data set on rats, the response vs control in vivo at 50 mg/kg worked out at 180%. For the same molecule, the ED30 in data set [2] came to 62 mg/kg. For the same molecule, the median lethal dose (LD50) at 168 h in data set [3] was above 5000 mg/kg.
For the molecule `CCC(=O)N1CCC(=NO)c2cc(Br)ccc21` [XVI, 6-Bromo-4-oximino-1-propionyl-1,2,3,4-tetrahydroquinoline], in data set [1], the “Solubility in ethanol and dichloromethane” value is “soluble”; the “Solubility in water and hexane” value is given as “Sparingly soluble”. In the data set on rats, the response vs control in vivo at 5 mg/kg was determined as 243% and the response vs control in vivo at 10 mg/kg is 380%. Further, the ED30 in data set [2] turned out to be 16 mg/kg. The molecule further registered a median lethal dose (LD50) at 168 h in data set [3] of 4710 mg/kg.
